{
  "source": "ChEMBL document CHEMBL1221210",
  "about": "“A Cdc7 kinase inhibitor restricts initiation of DNA replication and has antitumor activity” (Nat Chem Biol, 2008)",
  "key": {"K562 [1]": {"tested_on": "K562", "assay": "Antiproliferative activity against p53 deficient human K562 cells after 72 hrs", "type": "functional, cell-based", "settings": "K562, 72 h; call rule not given here"}, "HCT-116 [2]": {"tested_on": "HCT-116", "assay": "Induction of cell cycle arrest in human HCT116 cells expressing p53 gene assessed as accumulation at subG1 phase at 5 uM after 24hrs by FACS analysis", "type": "functional"}, "PC-3": {"tested_on": "PC-3", "assay": "Induction of cell cycle arrest in human PC3 cells expressing p53 gene assessed as residual DNA synthesis at 10 uM after 24 hrs by FACS analysis", "type": "functional"}, "SF-268": {"tested_on": "SF-268", "assay": "Induction of cell cycle arrest in p53 deficient human SF268 cells assessed as residual DNA synthesis at 10 uM after 24 hrs by FACS analysis", "type": "functional"}, "NHDF [3]": {"tested_on": "NHDF", "assay": "Induction of cell cycle arrest in NHDF expressing p53 gene assessed as accumulation at subG1 phase at 10 uM after 24 hrs by FACS analysis", "type": "cell-based", "settings": "human"}, "[4]": {"molecular_target": "Serine/threonine-protein kinase Nek6 (Homo sapiens, UniProt Q9HC98)", "sequence (Q9HC98 whole entry)": "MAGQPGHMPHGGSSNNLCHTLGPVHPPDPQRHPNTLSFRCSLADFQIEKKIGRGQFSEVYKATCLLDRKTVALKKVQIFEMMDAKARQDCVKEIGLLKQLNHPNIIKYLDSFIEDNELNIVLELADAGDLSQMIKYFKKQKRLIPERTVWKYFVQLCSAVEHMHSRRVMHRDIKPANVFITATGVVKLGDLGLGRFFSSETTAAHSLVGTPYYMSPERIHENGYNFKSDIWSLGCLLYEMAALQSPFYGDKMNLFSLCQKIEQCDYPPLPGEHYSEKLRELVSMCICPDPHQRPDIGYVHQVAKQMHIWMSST", "assay": "Inhibition of Nek6"}, "[5]": {"assay": "Induction of cell cycle arrest in p53 deficient human A2780/E6 cells assessed as residual DNA synthesis at 5 uM after 24 hrs by FACS analysis", "type": "functional"}, "[6]": {"assay": "Induction of cell cycle arrest in p53 deficient human HCT116-E6 cells assessed as accumulation at subG1 phase at 10 uM after 24hrs by FACS analysis", "type": "functional"}, "HeLa [7]": {"tested_on": "HeLa", "assay": "Inhibition of DNA replication in human HeLa cells assessed as interorigin distance between homogenous DNA fibers at 20 uM after 2 hrs by immunofluorescence assay", "type": "functional"}, "OVCAR-8 [8]": {"tested_on": "OVCAR-8", "assay": "Induction of cell cycle arrest in p53 deficient human OVCAR8 cells assessed as residual DNA synthesis at 5 uM after 24hrs by FACS analysis", "type": "functional"}, "OVCAR-8 [9]": {"tested_on": "OVCAR-8", "assay": "Induction of cell cycle arrest in p53 deficient human OVCAR8 cells assessed as accumulation at subG1 phase at 10 uM after 24 hrs by FACS analysis", "type": "functional"}, "[10]": {"molecular_target": "Serine/threonine-protein kinase TAO3 (Homo sapiens, UniProt Q9H2K8)", "sequence (Q9H2K8 whole entry)": "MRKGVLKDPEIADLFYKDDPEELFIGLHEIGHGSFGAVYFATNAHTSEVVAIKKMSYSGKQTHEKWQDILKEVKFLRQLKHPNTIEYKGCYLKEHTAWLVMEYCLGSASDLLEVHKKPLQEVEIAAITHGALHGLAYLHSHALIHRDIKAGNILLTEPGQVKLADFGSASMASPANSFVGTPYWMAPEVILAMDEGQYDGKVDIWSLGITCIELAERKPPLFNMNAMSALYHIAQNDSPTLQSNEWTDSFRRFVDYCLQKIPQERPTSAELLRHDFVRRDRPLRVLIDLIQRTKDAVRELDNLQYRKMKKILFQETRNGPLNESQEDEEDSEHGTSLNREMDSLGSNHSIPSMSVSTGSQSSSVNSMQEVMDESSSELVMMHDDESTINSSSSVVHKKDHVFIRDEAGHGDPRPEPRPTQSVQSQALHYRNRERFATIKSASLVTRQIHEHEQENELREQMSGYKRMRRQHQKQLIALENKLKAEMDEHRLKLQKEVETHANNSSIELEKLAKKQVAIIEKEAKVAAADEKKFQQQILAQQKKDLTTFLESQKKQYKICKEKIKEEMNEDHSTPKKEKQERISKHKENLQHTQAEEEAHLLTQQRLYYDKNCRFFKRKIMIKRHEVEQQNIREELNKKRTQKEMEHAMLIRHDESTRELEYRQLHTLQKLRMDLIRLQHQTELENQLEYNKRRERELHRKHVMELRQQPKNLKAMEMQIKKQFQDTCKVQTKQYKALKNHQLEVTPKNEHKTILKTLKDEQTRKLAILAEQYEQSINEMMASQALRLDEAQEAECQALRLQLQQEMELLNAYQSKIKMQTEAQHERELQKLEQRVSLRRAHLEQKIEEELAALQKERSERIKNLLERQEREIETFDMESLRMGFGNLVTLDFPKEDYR", "assay": "Inhibition of TAO3"}, "OVCAR-8 [11]": {"tested_on": "OVCAR-8", "assay": "Induction of cell cycle arrest in p53 deficient human OVCAR8 cells assessed as accumulation at subG1 phase at 5 uM after 24hrs by FACS analysis", "type": "functional"}, "[12]": {"molecular_target": "Inhibitor of nuclear factor kappa-B kinase subunit beta (Homo sapiens, UniProt O14920)", "sequence (O14920 whole entry)": "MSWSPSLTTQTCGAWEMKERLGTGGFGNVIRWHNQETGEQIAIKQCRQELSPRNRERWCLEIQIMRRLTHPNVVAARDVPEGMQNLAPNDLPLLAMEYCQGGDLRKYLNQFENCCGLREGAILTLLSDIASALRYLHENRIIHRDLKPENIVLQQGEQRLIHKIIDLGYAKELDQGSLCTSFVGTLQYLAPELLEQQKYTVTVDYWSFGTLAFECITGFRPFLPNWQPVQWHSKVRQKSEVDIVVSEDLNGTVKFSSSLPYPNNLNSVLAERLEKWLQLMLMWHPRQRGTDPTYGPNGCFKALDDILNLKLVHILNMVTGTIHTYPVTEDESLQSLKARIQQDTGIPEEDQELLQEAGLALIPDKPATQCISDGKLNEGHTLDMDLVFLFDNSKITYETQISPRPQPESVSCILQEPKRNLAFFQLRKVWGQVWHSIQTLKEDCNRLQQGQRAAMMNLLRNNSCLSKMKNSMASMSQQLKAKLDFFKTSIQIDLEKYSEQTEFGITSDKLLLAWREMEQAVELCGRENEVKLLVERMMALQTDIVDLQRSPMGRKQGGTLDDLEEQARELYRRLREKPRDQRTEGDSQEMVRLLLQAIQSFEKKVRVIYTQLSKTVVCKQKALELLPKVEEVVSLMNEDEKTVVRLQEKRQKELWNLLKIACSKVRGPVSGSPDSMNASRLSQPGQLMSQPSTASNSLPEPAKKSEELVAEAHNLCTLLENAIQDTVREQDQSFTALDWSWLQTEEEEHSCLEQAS", "assay": "Inhibition of IKK2"}, "HCT-15": {"tested_on": "HCT-15", "assay": "Induction of cell cycle arrest in human HCT15 cells expressing p53 gene assessed as residual DNA synthesis at 10 uM after 24 hrs by FACS analysis", "type": "functional"}, "[13]": {"assay": "Induction of cell cycle arrest in p53 deficient human HCT116-E6 cells assessed as residual DNA synthesis at 5 uM after 24 hrs by FACS analysis", "type": "functional"}, "HeLa [14]": {"tested_on": "HeLa", "assay": "Inhibition of DNA replication in human HeLa cells assessed as increase in replication fork speed per min at 2 uM after 2 hrs by immunofluorescence assay", "type": "functional"}, "HCT-116 [15]": {"tested_on": "HCT-116", "assay": "Induction of cell cycle arrest in human HCT116 cells expressing p53 gene assessed as residual DNA synthesis at 5 uM after 24 hrs by FACS analysis", "type": "functional"}, "COLO 205 [16]": {"tested_on": "COLO 205", "assay": "Induction of cell cycle arrest in p53 deficient human COLO205 cells assessed as residual DNA synthesis at 5 uM after 24 hrs by FACS analysis", "type": "functional"}, "[17]": {"assay": "Antiproliferative activity against p53 deficient human HCT116/E6 cells after 72 hrs by proliferative assay", "type": "functional, cell-based", "settings": "HCT116-E6, 72 h"}, "NHDF [18]": {"tested_on": "NHDF", "assay": "Induction of cell cycle arrest in NHDF expressing p53 gene assessed as accumulation at subG1 phase at 0.1 uM after 24hrs by FACS analysis", "type": "cell-based", "settings": "human"}, "[19]": {"assay": "Induction of cell cycle arrest in p53 deficient human HCT116-E6 cells assessed as accumulation at subG1 phase at 5 uM after 24hrs by FACS analysis", "type": "functional"}, "A2780": {"tested_on": "A2780", "assay": "Induction of cell cycle arrest in human A2780 cells expressing p53 gene assessed as residual DNA synthesis at 10 uM after 24 hrs by FACS analysis", "type": "functional"}, "[20]": {"molecular_target": "Mitogen-activated protein kinase 11 (Homo sapiens, UniProt Q15759)", "sequence (Q15759 whole entry)": "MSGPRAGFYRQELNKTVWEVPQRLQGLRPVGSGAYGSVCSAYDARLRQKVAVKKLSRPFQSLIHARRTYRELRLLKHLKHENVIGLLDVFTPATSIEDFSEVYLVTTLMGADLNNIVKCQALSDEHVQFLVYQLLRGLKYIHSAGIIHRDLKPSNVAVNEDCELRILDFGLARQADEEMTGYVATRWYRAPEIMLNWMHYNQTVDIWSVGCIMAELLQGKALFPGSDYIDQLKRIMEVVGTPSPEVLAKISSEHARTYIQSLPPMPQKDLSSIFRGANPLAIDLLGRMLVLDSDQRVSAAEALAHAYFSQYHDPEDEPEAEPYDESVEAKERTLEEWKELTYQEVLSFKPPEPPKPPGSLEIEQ", "assay": "Inhibition of P38beta"}, "Jurkat": {"tested_on": "Jurkat", "assay": "Induction of cell cycle arrest in p53 deficient human Jurkat cells assessed as residual DNA synthesis at 10 uM after 24 hrs by FACS analysis", "type": "functional"}, "[21]": {"assay": "Induction of cell cycle arrest in NHDF assessed as accumulation at subG1 phase at 5 uM after 24hrs by propidium-iodine staining based FACS analysis in presence of p53 specific siRNA", "settings": "human"}, "HeLa [22]": {"tested_on": "HeLa", "assay": "Inhibition of DNA replication in human HeLa cells assessed as interorigin distance between homogenous DNA fibers at 2 uM after 2 hrs by immunofluorescence assay", "type": "functional"}, "OVCAR-8 [23]": {"tested_on": "OVCAR-8", "assay": "Antiproliferative activity against p53 deficient human OVCAR8 cells after 72 hrs by proliferative assay", "type": "functional, cell-based", "settings": "OVCAR-8, 72 h"}, "HCT-116 [24]": {"tested_on": "HCT-116", "assay": "Induction of cell cycle arrest in human HCT116 cells expressing p53 gene assessed as residual DNA synthesis at 10 uM after 24 hrs by FACS analysis", "type": "functional"}, "[25]": {"assay": "Induction of cell cycle arrest in p53 deficient human A2780/E6 cells assessed as residual DNA synthesis at 10 uM after 24 hrs by FACS analysis", "type": "functional"}, "COLO 205 [26]": {"tested_on": "COLO 205", "assay": "Induction of cell cycle arrest in p53 deficient human COLO205 cells assessed as residual DNA synthesis at 10 uM after 24 hrs by FACS analysis", "type": "functional"}, "MCF7": {"tested_on": "MCF7", "assay": "Induction of cell cycle arrest in human MCF7 cells expressing p53 gene assessed as accumulation at subG1 phase at 10 uM after 24hrs by FACS analysis", "type": "functional"}, "HeLa [27]": {"tested_on": "HeLa", "assay": "Induction of cell cycle arrest in p53 deficient human HeLa cells assessed as residual DNA synthesis at 10 uM after 24 hrs by FACS analysis", "type": "functional"}, "HeLa [28]": {"tested_on": "HeLa", "assay": "Inhibition of DNA replication in human HeLa cells assessed as increase in replication fork speed per min at 5 uM after 2 hrs by immunofluorescence assay", "type": "functional"}, "Rattus norvegicus": {"tested_on": "Rattus norvegicus", "assay": "AUC in rat carrying DMBA-induced mammary carcinoma at 10 mg/kg, iv after 10 hrs", "type": "ADME, organism-based, Plasma", "parameters": "time < 10 hr, dose 10 mg/kg, route intravenous", "settings": "in vivo"}, "[29]": {"assay": "Clearance in rat carrying DMBA-induced mammary carcinoma at 10 mg/kg, iv after 10 hrs", "type": "ADME, organism-based", "parameters": "dose 10 mg/kg, route intravenous", "settings": "in vivo"}, "HeLa [30]": {"tested_on": "HeLa", "assay": "Induction of cell cycle arrest in p53 deficient human HeLa cells assessed as residual DNA synthesis at 5 uM after 24hrs by FACS analysis", "type": "functional"}, "K562 [31]": {"tested_on": "K562", "assay": "Induction of cell cycle arrest in p53 deficient human K562 cells assessed as residual DNA synthesis at 10 uM after 24 hrs by FACS analysis", "type": "functional"}, "HeLa [32]": {"tested_on": "HeLa", "assay": "Inhibition of DNA replication in human HeLa cells assessed as increase in replication fork speed per min at 5 uM after 6 hrs by immunofluorescence assay", "type": "functional"}},
  "data": [
    {"molecule": "O=C1NCCc2[nH]c(-c3ccncc3)cc21", "values": [
      {"measurement": "IC50", "setting": "K562 [1]", "value": 5.87, "unit": "µM"},
      {"measurement": "Activity", "setting": "HCT-116 [2]", "value": 3, "unit": "%"},
      {"measurement": "Activity", "setting": "PC-3", "value": "<3", "unit": "%"},
      {"measurement": "Activity", "setting": "SF-268", "value": "<3", "unit": "%"},
      {"measurement": "Activity", "setting": "NHDF [3]", "value": "< 3", "unit": "%"},
      {"measurement": "IC50", "setting": "[4]", "value": "> 10", "unit": "µM"},
      {"measurement": "Activity", "setting": "[5]", "value": "<3", "unit": "%"},
      {"measurement": "Activity", "setting": "[6]", "value": 3, "unit": "%"},
      {"measurement": "Activity", "setting": "HeLa [7]", "value": 226, "unit": "kilobase"},
      {"measurement": "Activity", "setting": "OVCAR-8 [8]", "value": "<3", "unit": "%"},
      {"measurement": "Activity", "setting": "OVCAR-8 [9]", "value": 3, "unit": "%"},
      {"measurement": "IC50", "setting": "[10]", "value": "> 10", "unit": "µM"},
      {"measurement": "Activity", "setting": "OVCAR-8 [11]", "value": 3, "unit": "%"},
      {"measurement": "IC50", "setting": "[12]", "value": "> 10", "unit": "µM"},
      {"measurement": "Activity", "setting": "HCT-15", "value": "<3", "unit": "%"},
      {"measurement": "Activity", "setting": "[13]", "value": 3, "unit": "%"},
      {"measurement": "Activity", "setting": "HeLa [14]", "value": 1.8, "unit": "kilobase"},
      {"measurement": "Activity", "setting": "HCT-116 [15]", "value": 3, "unit": "%"},
      {"measurement": "Activity", "setting": "COLO 205 [16]", "value": "<3", "unit": "%"},
      {"measurement": "IC50", "setting": "[17]", "value": 1.48, "unit": "µM"},
      {"measurement": "Activity", "setting": "NHDF [18]", "value": "Active"},
      {"measurement": "Activity", "setting": "[19]", "value": 3, "unit": "%"},
      {"measurement": "Activity", "setting": "A2780", "value": "<3", "unit": "%"},
      {"measurement": "IC50", "setting": "[20]", "value": "> 10", "unit": "µM"},
      {"measurement": "Activity", "setting": "Jurkat", "value": "<3", "unit": "%"},
      {"measurement": "Activity", "setting": "[21]", "value": 6.8, "unit": "%"},
      {"measurement": "Activity", "setting": "HeLa [22]", "value": 225, "unit": "kilobase"},
      {"measurement": "IC50", "setting": "OVCAR-8 [23]", "value": 1.56, "unit": "µM"},
      {"measurement": "Activity", "setting": "HCT-116 [24]", "value": "<3", "unit": "%"},
      {"measurement": "Activity", "setting": "[25]", "value": "<3", "unit": "%"},
      {"measurement": "Activity", "setting": "COLO 205 [26]", "value": 3, "unit": "%"},
      {"measurement": "Activity", "setting": "MCF7", "value": "<3", "unit": "%"},
      {"measurement": "Activity", "setting": "HeLa [27]", "value": "<3", "unit": "%"},
      {"measurement": "Activity", "setting": "HeLa [28]", "value": 1.86, "unit": "kilobase"},
      {"measurement": "AUC", "setting": "Rattus norvegicus", "value": 21, "unit": "µM·h"},
      {"measurement": "clearance", "setting": "[29]", "value": 30, "unit": "mL/min/kg"},
      {"measurement": "Activity", "setting": "HeLa [30]", "value": "<3", "unit": "%"},
      {"measurement": "Activity", "setting": "K562 [31]", "value": 10, "unit": "%"},
      {"measurement": "Activity", "setting": "HeLa [32]", "value": 2.14, "unit": "kilobase"}
    ]}
  ]
}
